Experimental data reported in patent publication US7713970B2, “Substituted cyclic urea derivatives” (FMC Corporation, priority 2004, dated 2010).

Test system: tobacco budworm (Heliothis virescens [Fabricius])
Assay: surface-treated diet test against tobacco budworm
Format: in vivo
Conditions: 0.25 millimolar candidate insecticide on the surface of the diet, second instar larvae, five-day exposure; for Percent Mortality: compared to total number of insects infested; for Percent Growth Inhibition: inhibition of insect weight relative to untreated controls
Method: Candidate insecticides were evaluated for activity against the tobacco budworm (Heliothis virescens [Fabricius]) in a surface-treated diet test.
In this test one mL of molten (65-70° C.) wheat germ-based artificial diet was pipetted into each well of a four by six (24 well) multi-well plate (ID# 430345-15.5 mm dia.×17.6 mm deep; Corning Costar Corp., One Alewife Center, Cambridge, Mass. 02140). The diet was allowed to cool to ambient temperature before treatment with candidate insecticide.
For a determination of insecticidal activity, solutions of the candidate insecticides were prepared for testing using a Packard 204DT Multiprobe® Robotic System (Packard Instrument Company, 800 Research Parkway, Meriden, Conn. 06450), in which the robot first diluted a standard 50 millimolar DMSO solution of candidate insecticide with a 1:1 water/acetone solution (V/V) in a ratio of 1:7 stock solution to water/acetone. The robot subsequently pipetted 40 microliters of the so-prepared solution onto the surface of the diet in each of three wells in the 24 multi-well plate. The process was repeated with solutions of seven other candidate insecticides. Once treated, the contents of the multi-well plate were allowed to dry, leaving 0.25 millimoles of candidate insecticide on the surface of the diet, or a concentration of 0.25 millimolar. Appropriate untreated controls containing only DMSO on the diet surface were also included in this test.
For evaluations of the insecticidal activity of a candidate insecticide at varying rates of application, the test was established as described above using sub-multiples of the standard 50 millimolar DMSO solution of candidate insecticide. For example, the standard 50 millimolar solution was diluted by the robot with DMSO to give 5, 0.5, 0.05, 0.005, 0.0005 millimolar, or more dilute solutions of the candidate insecticide. In these evaluations there were six replicates of each rate of application placed on the surface of the diet in the 24 multi-well plate, for a total of four rates of application of candidate insecticide in each plate.
In each well of the test plate was placed one second instar tobacco budworm larvea, each weighing approximately five milligrams. After the larvae were placed in each well, the plate was sealed with clear polyfilm adhesive tape. The tape over each well was perforated to ensure an adequate air supply. The plates were then held in a growth chamber at 25° C. and 60% relative humidity for five days (light 14 hours/day).
After the five-day exposure period insecticidal activity for each rate of application of candidate insecticide was assessed as percent inhibition of insect weight relative to the weight of insects from untreated controls, and percent mortality when compared to the total number of insects infested.

Structure (SMILES) | Percent Mortality | Percent Growth Inhibition
O=c1n(CCCCOc2c(Cl)cc(OCC=C(Cl)Cl)cc2Cl)ccn1-c1ccc(Cl)cc1 [Compound 4] | 100% | 100%
O=c1n(-c2ccc(Cl)cc2)cnn1CCCCOc1c(Cl)cc(OCC=C(Cl)Cl)cc1Cl [Compound 41] | 100% | 100%
O=c1n(CCCCOc2c(Cl)cc(OCC=C(Cl)Cl)cc2Cl)cnn1-c1cccc(Cl)c1 [Compound 75] | 100% | 100%
O=c1n(CCCCOc2c(Cl)cc(OCC=C(Cl)Cl)cc2Cl)cnn1-c1cccc(Cl)c1Cl [Compound 76] | 100% | 100%
O=c1n(CCCCOc2c(Cl)cc(OCC=C(Cl)Cl)cc2Cl)cnn1-c1ccc(Cl)c(Cl)c1 [Compound 80] | 100% | 100%
O=c1n(CCCCOc2c(Cl)cc(OCC=C(Cl)Cl)cc2Cl)cnn1-c1cc(Cl)cc(Cl)c1 [Compound 81] | 100% | 100%
CC(C)(C)c1ccc(-n2ncn(CCCCOc3c(Cl)cc(OCC=C(Cl)Cl)cc3Cl)c2=O)cc1 [Compound 83] | 100% | 100%
Cc1ccc(-n2ncn(CCCCOc3c(Cl)cc(OCC=C(Cl)Cl)cc3Cl)c2=O)cc1 [Compound 86] | 100% | 100%
O=c1n(CCCCOc2c(Cl)cc(OCC=C(Cl)Cl)cc2Cl)cnn1-c1cc(F)cc(F)c1 [Compound 87] | 100% | 100%
Cc1cc(-n2ncn(CCCCOc3c(Cl)cc(OCC=C(Cl)Cl)cc3Cl)c2=O)ccc1Cl [Compound 88] | 100% | 100%
N#Cc1ccc(-n2ncn(CCCCOc3c(Cl)cc(OCC=C(Cl)Cl)cc3Cl)c2=O)cc1 [Compound 89] | 100% | 100%
O=c1n(CCCCOc2c(Cl)cc(OCC=C(Cl)Cl)cc2Cl)cnn1-c1ccc(I)cc1 [Compound 90] | 100% | 100%
O=c1n(CCCCOc2c(Cl)cc(OCC=C(Cl)Cl)cc2Cl)cnn1-c1ccc(Cl)cc1 [Compound 91] | 100% | 100%
O=c1n(CCCCOc2c(Cl)cc(OCC=C(Cl)Cl)cc2Cl)cnn1-c1ccccc1Cl [Compound 92] | 100% | 100%
O=c1n(CCCCOc2c(Cl)cc(OCC=C(Cl)Cl)cc2Cl)cnn1-c1ccc([N+](=O)[O-])cc1 [Compound 93] | 100% | 100%
O=c1n(CCCCOc2c(Cl)cc(OCC=C(Cl)Cl)cc2Cl)cnn1-c1ccccc1 [Compound 94] | 100% | 100%
O=c1n(CCCCOc2c(Cl)cc(OCC=C(Cl)Cl)cc2Cl)cnn1-c1ccc(OC(F)(F)F)cc1 [Compound 97] | 100% | 100%
Cc1ccc(-n2ncn(CCCCOc3c(Cl)cc(OCC=C(Cl)Cl)cc3Cl)c2=O)cc1C [Compound 99] | 100% | 100%
Cc1cc(C)cc(-n2ncn(CCCCOc3c(Cl)cc(OCC=C(Cl)Cl)cc3Cl)c2=O)c1 [Compound 100] | 100% | 100%
Cc1ccc(-n2ncn(CCCCOc3c(Cl)cc(OCC=C(Cl)Cl)cc3Cl)c2=O)cc1Cl [Compound 101] | 100% | 100%
O=c1n(CCCCOc2c(Cl)cc(OCC=C(Cl)Cl)cc2Cl)cnn1-c1ccc(Br)cc1 [Compound 104] | 100% | 100%
O=c1n(CCOc2c(Cl)cc(OCC=C(Cl)Cl)cc2Cl)cnn1-c1ccc(C(F)(F)F)cc1 [Compound 105] | 100% | 100%
O=c1n(CCCOc2c(Cl)cc(OCC=C(Cl)Cl)cc2Cl)cnn1-c1ccc(C(F)(F)F)cc1 [Compound 106] | 100% | 100%

Structure (SMILES) | Percent Mortality | Percent Growth Inhibition
O=c1n(CCCCOc2c(Cl)cc(OCC=C(Cl)Cl)cc2Cl)cnn1-c1ccc(C(F)(F)F)cc1 [Compound 107, 4-{4-[4-(3,3-Dichloroprop-2-enyloxy)-2,6-dichlorophenoxy]butyl}-1-[4-(trifluoromethyl)-phenyl]-1,2,4-triazolin-5-one] | 100% | 100%
Cc1nn(-c2ccccc2)c(=O)n1CCCCOc1c(Cl)cc(OCC=C(Cl)Cl)cc1Cl [Compound 110] | 100% | 100%
Cc1nn(-c2ccc(Cl)cc2)c(=O)n1CCCCOc1c(Cl)cc(OCC=C(Cl)Cl)cc1Cl [Compound 113] | 100% | 100%
Cc1nn(-c2ccccc2F)c(=O)n1CCCCOc1c(Cl)cc(OCC=C(Cl)Cl)cc1Cl [Compound 114] | 100% | 100%
Cc1nn(-c2ccc(Cl)cc2Cl)c(=O)n1CCCCOc1c(Cl)cc(OCC=C(Cl)Cl)cc1Cl [Compound 118] | 100% | 100%
Cc1nn(-c2ccc(Cl)cc2F)c(=O)n1CCCCOc1c(Cl)cc(OCC=C(Cl)Cl)cc1Cl [Compound 123] | 100% | 100%
Cc1nn(-c2ccc(C(C)(C)C)cc2)c(=O)n1CCCCOc1c(Cl)cc(OCC=C(Cl)Cl)cc1Cl [Compound 125] | 100% | 100%
Cc1nn(-c2ccc(C(F)(F)F)cc2)c(=O)n1CCCCOc1c(Cl)cc(OCC=C(Cl)Cl)cc1Cl [Compound 131] | 100% | 100%
Cc1nn(-c2ccc(S(=O)(=O)C(F)F)cc2)c(=O)n1CCCCOc1c(Cl)cc(OCC=C(Cl)Cl)cc1Cl [Compound 135] | 100% | 100%
CC(C)(C)c1ccc(-n2nnn(CCCCOc3c(Cl)cc(OCC=C(Cl)Cl)cc3Cl)c2=O)cc1 [Compound 291] | 100% | 100%
O=c1n(CCCCOc2c(Cl)cc(OCC=C(Cl)Cl)cc2Cl)nnn1-c1ccc(C(F)(F)F)cc1 [Compound 293] | 100% | 100%
O=c1n(CCCCOc2c(Cl)cc(OCC=C(Cl)Cl)cc2Cl)nnn1-c1cc(Cl)cc(Cl)c1 [Compound 299] | 100% | 100%
O=c1n(CCCCOc2c(Cl)cc(OCC=C(Cl)Cl)cc2Cl)nnn1-c1ccc(Cl)cc1 [Compound 300] | 100% | 100%
O=c1n(CCCCOc2c(Cl)cc(OCC=C(Cl)Cl)cc2Cl)nnn1-c1ccc(OC(F)(F)F)cc1 [Compound 303] | 100% | 100%
O=c1n(CCCCOc2c(Cl)cc(OCC=C(Cl)Cl)cc2Cl)nnn1-c1cccc(C(F)(F)F)c1 [Compound 304] | 100% | 100%
O=c1n(CCCCOc2c(Cl)cc(OCC=C(Cl)Cl)cc2Cl)nnn1-c1ccc(Cl)c(Cl)c1 [Compound 306] | 100% | 100%
O=c1n(CCCCOc2c(Cl)cc(OCC=C(Cl)Cl)cc2Cl)nnn1-c1ccccc1 [Compound 307] | 100% | 100%
O=c1n(CCOc2c(Cl)cc(OCC=C(Cl)Cl)cc2Cl)nnn1-c1cccc(Cl)c1 [Compound 308] | 100% | 100%
O=c1n(CCCOc2c(Cl)cc(OCC=C(Cl)Cl)cc2Cl)nnn1-c1cccc(Cl)c1 [Compound 309] | 100% | 100%
CC1(C)Cc2cccc(-n3nnn(CCCCOc4c(Cl)cc(OCC=C(Cl)Cl)cc4Cl)c3=O)c2O1 [Compound 335] | 100% | 100%
O=c1n(CCCCOc2c(Cl)cc(OCC=C(Cl)Cl)cc2Cl)nnn1Cc1ccccc1 [Compound 512] | 100% | 100%
O=c1n(CCCCOc2c(Cl)cc(OCC=C(Cl)Cl)cc2Cl)nnn1Cc1ccccc1Cl [Compound 513] | 100% | 100%
O=c1n(CCCCOc2c(Cl)cc(OCC=C(Cl)Cl)cc2Cl)nnn1Cc1cccc(Cl)c1 [Compound 514] | 100% | 100%
